One test deals with T1, JAK3 (Homo sapiens, UniProt P52333).
T1 construct: recombinant purified GST-tagged catalytic domain for each enzyme; purchased Invitrogen M4290
As to the kind of experiment: Jak Biochemical HTRF Assay (JAK3). The following applies: recombinant purified GST-tagged catalytic domain, [ATP] 2.9 μM, values given as range classes. A digest of the protocol:
(§1)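 GST-tagged recombinant catalytic domain and biotinylated peptide substrate were preincubated with compound for 30 min at room temperature in kinase buffer with 2 mM DTT and 0.05% BSA. ATP then started a 120 min reaction. Phosphopeptide was detected by HTRF (Eu-pY20/streptavidin-Dylight 650, 665/615 nm ratio), and IC50 came from a 4-parameter fit of percent inhibition.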
(TR-FRET usually uses a lanthanide donor and a delayed reading to cut background.)

For the next test, the target named is T2, JAK2 (Homo sapiens, UniProt O60674).
T2 construct: recombinant purified GST-tagged catalytic domain for each enzyme; purchased Invitrogen M4290
Description: Jak Biochemical HTRF Assay (JAK2). The following applies: recombinant purified GST-tagged catalytic domain, [ATP] 8.5 μM, values given as range classes. The method, boiled down: as §1

Each structure is given as a SMILES string. Where only a bound is given, the exact number is not on record here.

Drawing on patent US9096598B2 (Merck Sharp & Dohme Corp., priority 2011, dated 2015), this text covers IC50 for 19 compounds.

As usually defined, the IC50 is the concentration at which inhibition is half-maximal.

T1 sequence (P52333 822-1111 limits assumed): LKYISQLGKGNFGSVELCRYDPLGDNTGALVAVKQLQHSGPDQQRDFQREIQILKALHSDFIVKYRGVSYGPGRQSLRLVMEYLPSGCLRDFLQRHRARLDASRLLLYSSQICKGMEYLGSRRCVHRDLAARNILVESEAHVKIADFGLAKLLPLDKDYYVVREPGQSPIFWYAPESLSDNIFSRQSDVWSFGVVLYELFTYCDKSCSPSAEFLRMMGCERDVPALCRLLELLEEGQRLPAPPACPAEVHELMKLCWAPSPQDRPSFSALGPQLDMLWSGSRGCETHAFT
T2 sequence (O60674 849-1124 limits assumed): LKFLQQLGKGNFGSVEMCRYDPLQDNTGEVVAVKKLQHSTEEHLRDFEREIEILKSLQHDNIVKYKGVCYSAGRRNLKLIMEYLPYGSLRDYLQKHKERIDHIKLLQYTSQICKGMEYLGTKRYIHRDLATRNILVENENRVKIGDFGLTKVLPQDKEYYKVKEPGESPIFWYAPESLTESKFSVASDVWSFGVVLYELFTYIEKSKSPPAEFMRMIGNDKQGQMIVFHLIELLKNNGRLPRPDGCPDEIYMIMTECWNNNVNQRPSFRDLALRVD

Turning to `CC(C)[C@H](Nc1cncc(-c2c[nH]c3ncc(CNC(=O)C4CC4)cc23)c1)C(=O)NCC(F)(F)F` [Example 10-6, N~2~-[5-(5-{[(cyclopropylcarbonyl)amino]methyl}-1H-pyrrolo[2,3-b]pyridin-3-yl)pyridin-3-yl]-N-(2,2,2-trifluoroethyl)valinamide], the IC50 is no more than 10 nM on JAK3 and 10 to 500 nM at JAK2.
For `Clc1cnc2[nH]cc(-c3cncc(N4CCCC4c4nccs4)c3)c2c1` (centres unmarked) [Example 1-28, 5-chloro-3-{5-[2-(1,3-thiazol-2-yl)pyrrolidin-1-yl]pyridin-3-yl}-1H-pyrrolo[2,3-b]pyridine], in that order: no more than 10 nM and 10 to 500 nM.
For `CC(C)[C@H](Nc1cncc(-c2c[nH]c3ncc(OCCN4CCN(C)CC4)cc23)c1)C(=O)NCC(F)(F)F` [Example 2-17, N~2~-(5-{5-[2-(4-methylpiperazin-1-yl)ethoxy]-1H-pyrrolo[2,3-b]pyridin-3-yl}pyridin-3-yl)-N-(2,2,2-trifluoroethyl)valinamide], in that order: no more than 10 nM and 10 to 500 nM.
As for `CC(C)[C@@H](Nc1cncc(-c2c[nH]c3ncc(C(=O)NCc4cnn(C)c4)cc23)c1)C(=O)NCC(F)(F)F` [Example 3-12, N-[(1-methyl-1H-pyrazol-4-yl)methyl]-3-[5-({(1R)-2-methyl-1-[(2,2,2-trifluoroethyl)carbamoyl]propyl}amino)pyridin-3-yl]-1H-pyrrolo[2,3-b]pyridine-5-carboxamide], the IC50 on JAK3 and at JAK2 was no more than 10 nM in each case.
For the compound `CC(C)=CC(=O)NCc1cnc2[nH]cc(-c3cncc(N[C@H](C(=O)NCC(F)(F)F)C(C)C)c3)c2c1` [Example 10-8, N~2~-[5-(5-{[(3-methylbut-2-enoyl)amino]methyl}-1H-pyrrolo[2,3-b]pyridin-3-yl)pyridin-3-yl]-N-(2,2,2-trifluoroethyl)valinamide], the IC50 at JAK3 and at JAK2 was 10 to 500 nM in each case.
Take `CC(C)[C@H](Nc1cncc(-c2c[nH]c3ncc(OCCN4CCCC4=O)cc23)c1)C(=O)NCC(F)(F)F` [Example 2-10, N~2~-(5-{5-[2-(2-oxopyrrolidin-1-yl)ethoxy]-1H-pyrrolo[2,3-b]pyridin-3-yl}pyridin-3-yl)-N-(2,2,2-trifluoroethyl)valinamide]: the values for the IC50 at JAK3 and at JAK2 were no more than 10 nM and 10 to 500 nM, respectively.
For `CC(C)C(Nc1cncc(-c2c[nH]c3ncc(NC(=O)N[C@@H](C)C(=O)O)cc23)c1)C(=O)NCC(F)(F)F` (some centres unmarked) [Example 6-4, N-({3-[5-({2-methyl-1-[(2,2,2-trifluoroethyl)carbamoyl]propyl}amino)pyridin-3-yl]-1H-pyrrolo[2,3-b]pyridin-5-yl}carbamoyl)alanine], in that order: no more than 10 nM and 10 to 500 nM.
Take `O=C(NCC(F)(F)F)C(Nc1cncc(-c2c[nH]c3ncc(Cl)cc23)c1)C1CC1` (centres unmarked) [Example 1-48, 2-{[5-(5-chloro-1H-pyrrolo[2,3-b]pyridin-3-yl)pyridin-3-yl]amino}-2-cyclopropyl-N-(2,2,2-trifluoroethyl)acetamide]: the IC50 was no more than 10 nM on JAK3 and 10 to 500 nM on JAK2.
For `CC1c2ncc(C(F)(F)F)n2CCN1c1cnnc(-c2c[nH]c3ncc(Cl)cc23)n1` (centres unmarked) [Example 1-4, 7-[3-(5-chloro-1H-pyrrolo[2,3-b]pyridin-3-yl)-1,2,4-triazin-5-yl]-8-methyl-3-(trifluoromethyl)-5,6,7,8-tetrahydroimidazo[1,2-a]pyrazine], in that order: no more than 10 nM and 10 to 500 nM.
For `CC(C)[C@@H](Nc1cncc(-c2c[nH]c3ncc(CN4CCCC4)cc23)c1)C(=O)NCC(F)(F)F` [Example 9-7, N~2~-{5-[5-(pyrrolidin-1-ylmethyl)-1H-pyrrolo[2,3-b]pyridin-3-yl]pyridin-3-yl}-N-(2,2,2-trifluoroethyl)-D-valinamide], in that order: 10 to 500 nM and 10 to 500 nM.
For `Cc1ncoc1C(=O)NCc1cnc2[nH]cc(-c3cncc(N[C@H](C(=O)NCC(F)(F)F)C(C)C)c3)c2c1` [Example 10-7, N~2~-{5-[5-({[(4-methyl-1,3-oxazol-5-yl)carbonyl]amino}methyl)-1H-pyrrolo[2,3-b]pyridin-3-yl]pyridin-3-yl}-N-(2,2,2-trifluoroethyl)valinamide], in that order: 10 to 500 nM and greater than 500 nM.
`CC(C)(Nc1cnnc(-c2c[nH]c3ncc(C#N)cc23)n1)C(=O)NCC(F)(F)F` [Example 1-7, N~2~-[3-(5-cyano-1H-pyrrolo[2,3-b]pyridin-3-yl)-1,2,4-triazin-5-yl]-2-methyl-N-(2,2,2-trifluoroethyl)alaninamide]: the IC50 is no more than 10 nM on JAK3 and 10 to 500 nM on JAK2.
For `CCC(=O)Nc1cnc2[nH]cc(-c3cncc(NC(C(=O)NCC(F)(F)F)C(C)C)c3)c2c1` (centres unmarked) [Example 5-6, N^2-{5-[5-(propanoylamino)-1H-pyrrolo[2,3-b]pyridin-7-ium-3-yl]pyridin-3-yl}-N-(2,2,2-trifluoroethyl)valinamide], in that order: no more than 10 nM and 10 to 500 nM.
Turning to `C[C@@H](Nc1cnnc(-c2c[nH]c3ncc(C(F)(F)F)cc23)c1)C(=O)NCC(F)(F)F` [Example 1-25, N-(2,2,2-trifluoroethyl)-N~2~-{6-[5-(trifluoromethyl)-1H-pyrrolo[2,3-b]pyridin-3-yl]pyridazin-4-yl}-D-alaninamide], the IC50 was no more than 10 nM at JAK3 and 10 to 500 nM at JAK2.
For `CC(C)Oc1cnc2[nH]cc(-c3cncc(N[C@@H](C(=O)NCC(F)(F)F)C(C)C)c3)c2c1` [Example 2-3, N~2~-{5-[5-(1-methylethoxy)-1H-pyrrolo[2,3-b]pyridin-3-yl]pyridin-3-yl}-N-(2,2,2-trifluoroethyl)-D-valinamide], in that order: no more than 10 nM and 10 to 500 nM.
For `CC(C)(Nc1cnnc(-c2c[nH]c3ncc(C(N)=O)cc23)n1)C(=O)NCC(F)(F)F` [Example 1-13, 3-[5-({1,1-dimethyl-2-oxo-2-[(2,2,2-trifluoroethyl)amino]ethyl}amino)-1,2,4-triazin-3-yl]-1H-pyrrolo[2,3-b]pyridine-5-carboxamide], the results for the IC50 at JAK3 and at JAK2 were no more than 10 nM and 10 to 500 nM, respectively.
For `CC(C)[C@@H](Nc1cncc(-c2c[nH]c3ncc(C(=O)N4CCC4)cc23)c1)C(=O)NCC(F)(F)F` [Example 3-6, N~2~-{5-[5-(azetidin-1-ylcarbonyl)-1H-pyrrolo[2,3-b]pyridin-3-yl]pyridin-3-yl}-N-(2,2,2-trifluoroethyl)-D-valinamide], in that order: no more than 10 nM and 10 to 500 nM.
For `CC(C)[C@@H](Nc1cncc(-c2c[nH]c3ncc(C(=O)NCC4CCS(=O)(=O)C4)cc23)c1)C(=O)NCC(F)(F)F` (stereo partly drawn) [Example 3-9, N-[(1,1-dioxidotetrahydrothiophen-3-yl)methyl]-3-[5-({(1R)-2-methyl-1-[(2,2,2-trifluoroethyl)carbamoyl]propyl}amino)pyridin-3-yl]-1H-pyrrolo[2,3-b]pyridine-5-carboxamide], in that order: no more than 10 nM and 10 to 500 nM.
For `CC(C)(Nc1cncc(-c2c[nH]c3ncc(F)cc23)c1)C(=O)NCC(F)(F)F` [Example 1-43, N~2~-[5-(5-fluoro-1H-pyrrolo[2,3-b]pyridin-3-yl)pyridin-3-yl]-2-methyl-N-(2,2,2-trifluoroethyl)alaninamide], in that order: no more than 10 nM and 10 to 500 nM.
